Measured values from patent US11351274B2, “Methods of using optical agents” (MediBeacon Inc., priority 2006, dated 2022).
Read-outs that look alike come from different tables or passages of the source.

How the values were obtained:
[1] = general statement in the description; cited from earlier work
[2] = Renal clearance in an intact rat (fluorescence from within the ear); format: in vivo, Sprague-Dawley rat; details: bolus injection into lateral tail vein, 2 ml of 0.4 mg/ml in PBS, 470 nm laser at ear
Method: (§1) Incident laser light having a wavelength of about 470 nm was delivered via a fiber optic bundle to the ear of an anesthetized intact Sprague-Dawley rat. A photodetector was used to detect fluorescence from within the ear. A background reading of fluorescence was obtained prior to administration of optical agent. A pyrazine agent (2 ml of a 0.4 mg/ml solution of 3,6-diaminopyrazine-2,5-dicarbonyl acid in PBS) was then administered to the rat by a bolus injection into the lateral tail vein.
The blood clearance time profile likely followed a two compartment pharmacokinetic model. The fluorescent signal arising from the agent concentration in the blood as a function of time was therefore fit to a double exponential decay. The equation employed to fit the data was: S=Ae^−t/τ1Be^−t/τ2+C (1) where S is the fluorescent light intensity signal measured, and t is the time point of the measurement. The decay times τ1 and τ2, and the constants A, B, and C were deduced from the fitting procedure. The non-linear regression analysis package in SigmaPiot® (Systat Software Inc., Richmond Calif.) was used to fit data to Eq. (1). In this and the following example, τ1 represents the time constant for vascular-extracellular fluid equilibrium, and T2 represents optical agent clearance from the blood.

[3] = Renal clearance in a bilaterally nephrectomized rat (fluorescence from within the ear); format: in vivo, Sprague-Dawley rat; details: bilaterally nephrectomized rat compared with intact rat
Method: as §1, with “An anesthetized Sprague-Dawley rat was bilaterally nephrectomized. Incident” for “Incident”, “of the” for “of an anesthetized intact Sprague-Dawley”, “of the pyrazine” for “of optical”, “agent. The” for “agent. A”, “vein. […] Specifically, the renal arteries were tied off to block blood flow to the kidneys.” for “vein.”
A comparison of clearance data from the intact rat (FIG. 1) and the bilaterally nephrectomized rat (FIG. 2) is shown in FIG. 3.

[4] = Detection of optical agent in a rat ureter by fluorescence; format: in vivo, Sprague-Dawley rat
Method: A Sprague-Dawley rat was anesthetized with a cocktail of ketamine (87 mg/kg) and xylazine (2.6 mg/kg) administered by intraperitoneal injection. After the animal had achieved the desired plane of anesthesia, a 25 gauge butterfly with 3″ tubing was placed in the lateral tail vein of the animal and flushed with saline, The rat was placed onto a heating pad and kept warm throughout the study.
An abdominal incision was made to access the ureters and expose the ureters to a laser having the appropriate wavelength to cause the optical agent employed to fluoresce. Data acquisition was initiated, and a background reading of fluorescence was obtained prior to administration of the optical agent.
The optical agent, 3,6-diaminopyrazine-2,5-dicarboxylic acid, was administered to the rat by a bolus injection into the lateral tail vein and traveled through the circulatory system and kidneys to reach the ureters. The dose of optical agent was about 2 mL of 0.4 mg/mL solution in PBS. The rat weighed approximately 250 g.
A 3 mW laser from Power Technology, Inc. (Little Rock, […].) was used to emit light into one end of a fiber optic bundle, the other end of the bundle being positioned adjacent the ureter. […] As shown in FIGS. 5-6, when the surgical field was exposed to incident light having a wavelength of about 470 nm, the optical agent within the ureters emitted fluorescent energy at a wavelength of about 530 nm. Images of the surgical field showing the fluorescing optical agent in the ureter are shown in FIGS. 5-6 (in the absence of a 500 nm long pass filter) and FIG. 7 (in the presence of a 500 nm long pass filter).

[5] = Excitation and emission wavelengths of optical agents; format: physicochemical; details: see Example 3 and FIG. 4
Source text: In one exemplary embodiment, the optical agent is excited by light having a wavelength in the blue range of the visible portion of the electromagnetic spectrum (from about 430 nm to about 500 nm) and emits at a wavelength in the green range of the visible portion of the electromagnetic spectrum (from about 520 nm to about 565 nm). For example, fluorescein dyes can be excited with light with a wavelength of about 488 nm and have an emission wavelength of about 520 nm. As another example, 3,6-diaminopyrazine-2,5-dicarboxylic acid can be excited with light having a wavelength of about 470 nm and fluoresces at a wavelength of about 532 nm (see Example 3 and FIG. 4 herein).
In another embodiment, the excitation and emission wavelengths of the optical agent may fall in the near-infrared range of the electromagnetic spectrum. For example, indocyanine dyes, such as indocyanine green, can be excited with light with a wavelength of about 780 nm and have an emission wavelength of about 830 nm.

| period over which the agent was cleared from the bloodstream [2] | route of excretion concluded from failure to clear [3] | time after intravenous administration at which fluorescence within the ureter was detected ([4]; rat, about 2 mL of 0.4 mg/mL in PBS, tail vein bolus) | fluorescence emission wavelength ([5]; excitation about 470 nm) | excitation wavelength [5] | SMILES | emission wavelength [1] | excitation wavelength [1] | fluorescence emission wavelength within the ureters ([4]; incident light of about 470 nm, in vivo in rat ureter) | localisation of fluorescence in the surgical field ([4]; rat, ureter versus surrounding tissue) |
| --- | --- | --- | --- | --- | --- | --- | --- | --- | --- |
| – | – | – | – | – | CC1(C)C(/C=C/C=C/C=C/C=C2\N(CCCCS(=O)(=O)O)c3ccc4ccccc4c3C2(C)C)=[N+](CCCCS(=O)(=O)[O-])c2ccc3ccccc3c21 [indocyanine green] | about 830 nm | about 780 nm | – | – |
| slightly over twenty | renally excretable | about 40 minutes | about 532 nm | about 470 nm | Nc1nc(C(=O)O)c(N)nc1C(=O)O [3,6-diaminopyrazine-2,5-dicarboxylic acid] | – | – | about 530 nm | only observed from the ureter and not from any surrounding tissue |
